# Measurements reported in ChEMBL document CHEMBL6103662, “Thiosulfonate-Based Targeted Covalent Cruzipain Inhibitors with Enhanced Bioactivity Translation for Antichagasic Therapy” (ACS Med Chem Lett, 2025).
# The source made the active and inactive calls. No cut-off for these calls is given here.
# What was measured:
# [1] = target: Cruzipain (Trypanosoma cruzi) (UniProt P25779); assay: Inhibition of recombinant Trypanosoma cruzi Cruzain at 100 uM using Z-FR-AMC as substrate measured at 5 secs interval for 10 mins by fluorimetry relative to control
# Sequence of Cruzipain (Trypanosoma cruzi) (P25779 123-467 limits assumed): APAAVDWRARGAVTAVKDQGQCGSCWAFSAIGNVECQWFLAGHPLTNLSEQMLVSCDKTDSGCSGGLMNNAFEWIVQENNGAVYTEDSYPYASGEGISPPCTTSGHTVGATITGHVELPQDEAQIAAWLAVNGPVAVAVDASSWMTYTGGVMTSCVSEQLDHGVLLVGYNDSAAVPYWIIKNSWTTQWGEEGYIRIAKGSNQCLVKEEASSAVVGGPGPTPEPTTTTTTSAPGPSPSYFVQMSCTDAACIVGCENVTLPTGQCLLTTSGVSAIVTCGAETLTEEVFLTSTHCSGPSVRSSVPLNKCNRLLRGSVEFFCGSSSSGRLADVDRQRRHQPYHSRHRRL
# [2] = target: Cruzipain (Trypanosoma cruzi) (UniProt P25779); assay: Inhibition of recombinant Trypanosoma cruzi Cruzain at 100 uM using Z-FR-AMC as substrate preincubated for 10 mins followed by substrate addition and measured at 5 secs interval for 10 mins by fluorimetry relative to control; conditions: time 20.0 min
# Trypanosoma cruzi [3] = assay: Antitrypanosomal activity against Trypanosoma cruzi Tulahuen trypomastigotes expressing Escherichia coli beta-galactosidase infected in Vero cells at 50 uM measured after 72 hrs by beta-galactosidase based assay relative to control; format: functional
# cathepsin L = cathepsin L (Homo sapiens, UniProt P07711); assay: Inhibition of recombinant human cathepsin L at 100 uM using Z-FR-AMC as substrate preincubated for 10 mins followed by substrate addition and measured for 20 mins by fluorimetry relative to control; conditions: probe Z-FR-AMC, time 30 min
# Sequence of cathepsin L (P07711 whole entry): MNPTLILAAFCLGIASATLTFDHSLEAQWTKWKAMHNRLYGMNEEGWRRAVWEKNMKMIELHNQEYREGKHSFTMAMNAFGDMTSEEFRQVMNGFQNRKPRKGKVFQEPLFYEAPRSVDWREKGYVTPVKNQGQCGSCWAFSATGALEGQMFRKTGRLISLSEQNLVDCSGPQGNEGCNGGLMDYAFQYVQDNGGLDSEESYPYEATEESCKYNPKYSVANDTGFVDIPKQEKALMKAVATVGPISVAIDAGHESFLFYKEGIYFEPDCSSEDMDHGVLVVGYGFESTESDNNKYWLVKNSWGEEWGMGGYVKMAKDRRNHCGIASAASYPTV
# [4] = Cytotoxicity against African green monkey Vero cells assessed as cell viability at 50 uM measured after 96 hrs by Alamar blue assay relative to control; format: toxicity, cell-based; conditions: chlorocebus sabaeus, read-out: Activity
# Trypanosoma cruzi [5] = assay: Antitrypanosomal activity against Trypanosoma cruzi Tulahuen trypomastigotes expressing Escherichia coli beta-galactosidase infected in Vero cells at 10 uM measured after 72 hrs by beta-galactosidase based assay relative to control; format: functional
# Cruzipain = Cruzipain (Trypanosoma cruzi, UniProt P25779); assay: Inhibition of recombinant Trypanosoma cruzi Cruzain using Z-FR-AMC as substrate preincubated for 10 mins followed by substrate addition and measured at 5 secs interval for 10 mins by fluorimetry
# Sequence of Cruzipain (P25779 whole entry): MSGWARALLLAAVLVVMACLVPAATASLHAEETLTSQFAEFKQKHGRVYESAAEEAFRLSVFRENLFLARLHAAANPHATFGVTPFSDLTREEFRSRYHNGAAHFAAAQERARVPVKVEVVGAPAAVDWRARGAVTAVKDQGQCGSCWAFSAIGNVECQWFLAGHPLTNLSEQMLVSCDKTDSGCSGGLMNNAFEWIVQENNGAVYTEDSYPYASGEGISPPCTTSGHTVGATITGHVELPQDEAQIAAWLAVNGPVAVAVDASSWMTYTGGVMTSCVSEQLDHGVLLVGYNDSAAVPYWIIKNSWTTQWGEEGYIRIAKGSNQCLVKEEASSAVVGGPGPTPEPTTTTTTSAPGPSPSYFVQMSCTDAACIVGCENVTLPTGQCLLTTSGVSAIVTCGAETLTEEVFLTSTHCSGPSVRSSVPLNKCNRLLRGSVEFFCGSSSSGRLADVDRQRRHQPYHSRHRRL
# Trypanosoma cruzi [6] = assay: Antitrypanosomal activity against Trypanosoma cruzi Tulahuen trypomastigotes expressing Escherichia coli beta-galactosidase infected in Vero cells at 1 uM measured after 72 hrs by beta-galactosidase based assay relative to control; format: functional
# [7] = target: Cruzipain (Trypanosoma cruzi) (UniProt P25779); assay: Reversible inhibition of recombinant Trypanosoma cruzi Cruzain assessed as recovery of enzyme activity at 10 x IC50 using Z-FR-AMC as substrate preincubated for 30 mins followed by 100-fold dilution with assay buffer containing substrate and measured after 15 to 120 mins by fluorescence based jump dilution assay; conditions: time 150.0 min
# Trypanosoma cruzi [8] = assay: Antitrypanosomal activity against Trypanosoma cruzi Tulahuen trypomastigotes expressing Escherichia coli beta-galactosidase infected in Vero cells measured after 72 hrs by beta-galactosidase based assay; format: functional, organism-based
# [9] = target: Cruzipain (Trypanosoma cruzi) (UniProt P25779); assay: Inhibition of recombinant Trypanosoma cruzi Cruzain at 10 x IC50 using Z-FR-AMC as substrate preincubated for 30 mins followed by 100-fold dilution with assay buffer containing substrate and measured up to 15 mins by fluorescence based jump dilution assay; conditions: time 45.0 min
# Trypanosoma cruzi [10] = assay: Trypanocidal activity against Trypanosoma cruzi; format: functional, organism-based
inhibition [1] [%],inhibition [2] [%],IC50 (Cruzipain) [µM],inhibition [7],IC50 (Trypanosoma cruzi [8]) [µM],inhibition [9],SMILES,inhibition at 50 µM (Trypanosoma cruzi [3]) [%],"inhibition at 20 min, 100 µM (cathepsin L) [%]","viability at 96 h, 50 µM [4] [%]",inhibition at 10 µM (Trypanosoma cruzi [5]) [%],inhibition at 1 µM (Trypanosoma cruzi [6]) [%],IC50 (Trypanosoma cruzi [10]) [µM]
7,50,–,–,–,–,COc1ccc(COC(=O)[C@H](CSS(=O)(=O)c2ccccc2)n2cc(C(NCc3ccc4c(c3)OCO4)C3CCCCC3)nn2)cc1 (stereo partly drawn),5,16,97,–,–,–
–,15,–,–,–,–,CCOC(=O)[C@H](Cc1ccccc1)n1cc(C(NCc2ccc3c(c2)OCO3)C2CCCCC2)nn1 (stereo partly drawn),–,–,–,–,–,–
–,28,–,–,–,–,O=C(O)[C@H](CSS(=O)(=O)c1ccccc1)n1cc(C(C2CCCCC2)N2CCc3ccccc3C2)nn1 (stereo partly drawn),–,–,–,–,–,–
–,76,25,–,–,–,CCCCC(c1cn([C@@H](CSS(=O)(=O)c2ccccc2)C(=O)OCC)nn1)N1CCc2ccccc2C1 (stereo partly drawn),91.7,0,82,31,–,–
–,33,–,–,–,–,CCC(CC)C(NCc1ccc2c(c1)OCO2)c1cn([C@@H](CSS(=O)(=O)c2ccccc2)C(=O)O)nn1 (stereo partly drawn),–,–,–,–,–,–
–,80,13.7,–,–,–,CCOC(=O)[C@H](CSS(=O)(=O)c1ccccc1)n1cc(C(C2CCCCC2)N2CCc3ccccc3C2)nn1 (stereo partly drawn),91,8,87,77,0,–
20,73,4,Active,7.8,–,CC(C)[C@H](CSS(=O)(=O)c1ccccc1)n1cc(C(NCc2ccc3c(c2)OCO3)C2CCCCC2)nn1 (stereo partly drawn),100,0,75,93,–,–
55,83,12,–,–,–,COC(=O)[C@H](CSS(=O)(=O)c1ccccc1)n1cc(C(NCc2ccc3c(c2)OCO3)C2CCCCC2)nn1 (stereo partly drawn),100,55,82,90,3,–
–,90,9.7,–,–,–,COC(=O)[C@H](CSS(=O)(=O)c1ccccc1)n1cc(C(NCc2ccc3c(c2)OCO3)C2CCCC2)nn1 (stereo partly drawn),98,23,53,88,2,–
–,56,24,–,–,–,CCOC(=O)[C@H](CSS(=O)(=O)c1ccccc1)n1cc(C(NCc2ccc3c(c2)OCO3)C(CC)CC)nn1 (stereo partly drawn),97,2,70,91,0,–
–,92,3.2,–,–,–,CCCCC(NCc1ccc2c(c1)OCO2)c1cn([C@@H](CSS(=O)(=O)c2ccccc2)C(=O)OCC)nn1 (stereo partly drawn),97,84,63,83,10.7,–
–,–,–,–,–,–,O=C(Cn1ccnc1[N+](=O)[O-])NCc1ccccc1 [BENZNIDAZOLE],–,–,–,–,–,1.45
39,86,2.2,Active,1.9,–,O=S(=O)(SC[C@@H](Cc1ccccc1)n1cc(C(NCc2ccc3c(c2)OCO3)C2CCCCC2)nn1)c1ccccc1 (stereo partly drawn),99.9,13,100,91,–,–
–,41,–,–,–,–,O=C(O)[C@H](CSS(=O)(=O)c1ccccc1)n1cc(C(NCc2ccc3c(c2)OCO3)C2CCCCC2)nn1 (stereo partly drawn),–,–,–,–,–,–
–,64,41,–,–,–,O=C[C@H](Cc1ccccc1)n1cc(C(NCc2ccc3c(c2)OCO3)C2CCCCC2)nn1 (stereo partly drawn),10,–,–,–,–,–

SMILES,inhibition [1] [%],inhibition [2] [%],IC50 (Cruzipain) [µM],inhibition [7],IC50 (Trypanosoma cruzi [8]) [µM],inhibition [9],inhibition at 50 µM (Trypanosoma cruzi [3]) [%],"inhibition at 20 min, 100 µM (cathepsin L) [%]","viability at 96 h, 50 µM [4] [%]",inhibition at 10 µM (Trypanosoma cruzi [5]) [%],inhibition at 1 µM (Trypanosoma cruzi [6]) [%],IC50 (Trypanosoma cruzi [10]) [µM]
CCOC(=O)[C@H](CSS(=O)(=O)c1ccccc1)n1cc(C(NCc2ccc3c(c2)OCO3)C2CCCCC2)nn1 (stereo partly drawn),39,92,2.7,Active; Gradual Recovery Of Enzyme Activity Observed,–,Active; Showed Near-Zero Slope,100,47,87,96,14,–
